ChEMBL document CHEMBL1133436 (Bioorg Med Chem Lett, 2000)

Tests used:
Homo sapiens = species: Homo sapiens; experiment: Selectivity for alpha-2a to that of alpha2b determined by their binding affinity ratios
[1] = molecular target: T1, Alpha-2B adrenergic receptor (Homo sapiens, UniProt P18089); experiment: biochemical; type: cell-based, CHO
T1 sequence (P18089 whole entry): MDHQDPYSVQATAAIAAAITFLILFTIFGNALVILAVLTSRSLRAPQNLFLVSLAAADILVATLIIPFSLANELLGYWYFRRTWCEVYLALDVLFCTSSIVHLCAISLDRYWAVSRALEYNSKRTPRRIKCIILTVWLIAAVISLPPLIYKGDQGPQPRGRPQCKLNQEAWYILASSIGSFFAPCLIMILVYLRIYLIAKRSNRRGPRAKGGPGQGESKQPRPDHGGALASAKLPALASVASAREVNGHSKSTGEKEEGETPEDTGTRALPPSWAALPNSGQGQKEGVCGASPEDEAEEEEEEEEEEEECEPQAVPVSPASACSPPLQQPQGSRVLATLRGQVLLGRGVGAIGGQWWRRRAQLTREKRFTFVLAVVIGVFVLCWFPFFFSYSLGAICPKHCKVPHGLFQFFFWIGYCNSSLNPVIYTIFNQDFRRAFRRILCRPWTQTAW

[2] = molecular target: T2, Alpha-2A adrenergic receptor (Homo sapiens, UniProt P08913); experiment: Binding affinity against human Alpha-2A adrenergic receptor expressed stably in CHO cells using [3H]rauwolscine as radioligand; type: cell-based
T2 sequence (P08913 whole entry): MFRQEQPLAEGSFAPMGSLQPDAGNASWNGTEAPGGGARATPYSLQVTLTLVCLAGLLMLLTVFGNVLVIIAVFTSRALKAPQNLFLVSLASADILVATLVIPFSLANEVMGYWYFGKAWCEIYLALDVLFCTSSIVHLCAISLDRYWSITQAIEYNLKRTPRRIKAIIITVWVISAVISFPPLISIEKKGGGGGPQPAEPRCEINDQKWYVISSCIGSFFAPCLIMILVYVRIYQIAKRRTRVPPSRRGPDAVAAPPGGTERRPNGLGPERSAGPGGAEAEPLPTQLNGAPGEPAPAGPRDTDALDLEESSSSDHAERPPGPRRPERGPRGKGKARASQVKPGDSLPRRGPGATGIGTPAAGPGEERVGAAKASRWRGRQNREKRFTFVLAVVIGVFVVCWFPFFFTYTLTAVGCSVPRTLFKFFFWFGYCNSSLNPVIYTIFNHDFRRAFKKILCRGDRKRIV

Selectivity (Homo sapiens) | Ki [1] | Ki [2] | Compound
15.7 | 18.5 nM | 1.18 nM | O=C(NCCCCCCCCCCCCNC(=O)[C@@H]1[C@H]2C[C@H]3c4[nH]c5ccccc5c4CCN3C[C@@H]2CC[C@@H]1O)[C@@H]1[C@H]2C[C@H]3c4[nH]c5ccccc5c4CCN3C[C@@H]2CC[C@@H]1O
35.8 | 44.7 nM | 1.25 nM | O=C(NCCCCCCCCCNC(=O)[C@@H]1[C@H]2C[C@H]3c4[nH]c5ccccc5c4CCN3C[C@@H]2CC[C@@H]1O)[C@@H]1[C@H]2C[C@H]3c4[nH]c5ccccc5c4CCN3C[C@@H]2CC[C@@H]1O
60.5 | – | – | O=C(NCCCCCCCCNC(=O)[C@@H]1[C@H]2C[C@H]3c4[nH]c5ccccc5c4CCN3C[C@@H]2CC[C@@H]1O)[C@@H]1[C@H]2C[C@H]3c4[nH]c5ccccc5c4CCN3C[C@@H]2CC[C@@H]1O
47.7 | – | – | O=C(NCCCCCCCCCCNC(=O)[C@@H]1[C@H]2C[C@H]3c4[nH]c5ccccc5c4CCN3C[C@@H]2CC[C@@H]1O)[C@@H]1[C@H]2C[C@H]3c4[nH]c5ccccc5c4CCN3C[C@@H]2CC[C@@H]1O
